# Results taken from publication PMC4207543 (Journal of Medicinal Chemistry, 2014).
# Like-named read-outs stand apart in the source and are kept apart here.
# Columns and labels:
# [1] = system: S. aureus strain UAMS-1; assay: microbe, parasite or virus in culture; type: cell-based, Staphylococcus aureus; details: for fold reduction in activity compared to 4g: S. aureus MIC; for MIC: Staphylococcus aureus, UAMS1, 16 h, read-out: S. aureus MIC, strain UAMS-1, planktonic cells, MHB, 37 °C, 16 h
# [2] = molecular target: S. aureus topoisomerase IV (Staphylococcus aureus, UniProt P0C1S7+P0C1U9); assay: S. aureus topoisomerase IV decatenation assay; type: biochemical
# [3] = molecular target: S. aureus DNA gyrase (Staphylococcus aureus, UniProt P0A0K8+P20831); assay: S. aureus DNA gyrase supercoiling assay; type: biochemical; details: tested at 100 μM, gel (Figure 4B)
# [4] = system: S. aureus RNase J2; assay: S. aureus RNase J2 activity; type: biochemical; details: data not shown
# [5] = molecular target: T1, S. aureus RnpA (Staphylococcus aureus, UniProt P0A0H5); assay: S. aureus RnpA activity; type: biochemical; details: data not shown
# T1 sequence (P0A0H5 1-117): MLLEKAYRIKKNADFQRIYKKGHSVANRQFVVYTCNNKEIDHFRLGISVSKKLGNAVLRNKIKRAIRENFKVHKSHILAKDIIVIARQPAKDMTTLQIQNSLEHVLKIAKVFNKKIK
# [6] = system: methicillin-resistant (MRSA), vancomycin-intermediate (VISA), vancomycin-resistant (VRSA) S. aureus, fluoroquinolone resistant strains; type: cell-based, Staphylococcus aureus; details: toward MRSA, VRSA S. aureus and fluoroquinolone resistant strains
# [7] = strain UAMS-1, compared to the hit 1a
# Chain of S. aureus DNA gyrase (P20831 whole entry): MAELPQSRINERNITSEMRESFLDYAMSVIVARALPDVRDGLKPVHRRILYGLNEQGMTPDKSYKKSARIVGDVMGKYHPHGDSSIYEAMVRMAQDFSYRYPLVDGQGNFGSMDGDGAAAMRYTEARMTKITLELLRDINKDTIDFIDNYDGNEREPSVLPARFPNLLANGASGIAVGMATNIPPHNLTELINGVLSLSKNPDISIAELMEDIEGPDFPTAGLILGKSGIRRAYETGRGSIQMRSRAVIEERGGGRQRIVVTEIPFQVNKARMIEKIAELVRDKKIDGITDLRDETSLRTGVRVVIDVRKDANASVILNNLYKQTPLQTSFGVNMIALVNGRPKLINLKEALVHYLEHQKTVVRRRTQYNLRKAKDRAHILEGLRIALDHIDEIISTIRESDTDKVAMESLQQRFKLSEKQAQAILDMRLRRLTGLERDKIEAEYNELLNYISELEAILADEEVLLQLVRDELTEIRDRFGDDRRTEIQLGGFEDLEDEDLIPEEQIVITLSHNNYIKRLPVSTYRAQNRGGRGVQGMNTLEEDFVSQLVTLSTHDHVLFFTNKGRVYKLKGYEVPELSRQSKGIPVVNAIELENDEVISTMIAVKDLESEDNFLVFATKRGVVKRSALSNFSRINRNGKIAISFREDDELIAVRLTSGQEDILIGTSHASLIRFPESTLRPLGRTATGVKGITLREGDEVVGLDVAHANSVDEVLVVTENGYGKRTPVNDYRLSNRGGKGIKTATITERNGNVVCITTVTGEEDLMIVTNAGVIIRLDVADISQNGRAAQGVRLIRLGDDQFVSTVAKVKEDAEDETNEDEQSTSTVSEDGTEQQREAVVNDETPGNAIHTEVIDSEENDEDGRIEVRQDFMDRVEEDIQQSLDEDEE
# Chain of S. aureus DNA gyrase (P0A0K8 whole entry): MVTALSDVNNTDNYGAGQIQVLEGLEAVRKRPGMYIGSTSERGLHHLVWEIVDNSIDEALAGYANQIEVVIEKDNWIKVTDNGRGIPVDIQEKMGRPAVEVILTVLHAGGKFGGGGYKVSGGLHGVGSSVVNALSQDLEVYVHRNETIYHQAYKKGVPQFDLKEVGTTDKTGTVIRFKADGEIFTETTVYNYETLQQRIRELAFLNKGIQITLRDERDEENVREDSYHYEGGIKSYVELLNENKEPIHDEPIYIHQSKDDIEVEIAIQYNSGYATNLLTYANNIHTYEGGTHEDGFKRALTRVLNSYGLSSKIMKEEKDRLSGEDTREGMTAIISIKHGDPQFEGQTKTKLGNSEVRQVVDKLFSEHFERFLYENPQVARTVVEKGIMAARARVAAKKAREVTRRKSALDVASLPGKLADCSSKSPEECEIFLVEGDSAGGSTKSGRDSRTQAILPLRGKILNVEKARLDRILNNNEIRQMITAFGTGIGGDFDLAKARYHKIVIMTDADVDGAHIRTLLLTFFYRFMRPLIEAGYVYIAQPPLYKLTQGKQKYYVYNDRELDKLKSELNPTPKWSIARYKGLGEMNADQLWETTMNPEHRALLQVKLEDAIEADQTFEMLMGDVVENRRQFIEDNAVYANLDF
# Chain of S. aureus topoisomerase IV (P0C1U9 whole entry): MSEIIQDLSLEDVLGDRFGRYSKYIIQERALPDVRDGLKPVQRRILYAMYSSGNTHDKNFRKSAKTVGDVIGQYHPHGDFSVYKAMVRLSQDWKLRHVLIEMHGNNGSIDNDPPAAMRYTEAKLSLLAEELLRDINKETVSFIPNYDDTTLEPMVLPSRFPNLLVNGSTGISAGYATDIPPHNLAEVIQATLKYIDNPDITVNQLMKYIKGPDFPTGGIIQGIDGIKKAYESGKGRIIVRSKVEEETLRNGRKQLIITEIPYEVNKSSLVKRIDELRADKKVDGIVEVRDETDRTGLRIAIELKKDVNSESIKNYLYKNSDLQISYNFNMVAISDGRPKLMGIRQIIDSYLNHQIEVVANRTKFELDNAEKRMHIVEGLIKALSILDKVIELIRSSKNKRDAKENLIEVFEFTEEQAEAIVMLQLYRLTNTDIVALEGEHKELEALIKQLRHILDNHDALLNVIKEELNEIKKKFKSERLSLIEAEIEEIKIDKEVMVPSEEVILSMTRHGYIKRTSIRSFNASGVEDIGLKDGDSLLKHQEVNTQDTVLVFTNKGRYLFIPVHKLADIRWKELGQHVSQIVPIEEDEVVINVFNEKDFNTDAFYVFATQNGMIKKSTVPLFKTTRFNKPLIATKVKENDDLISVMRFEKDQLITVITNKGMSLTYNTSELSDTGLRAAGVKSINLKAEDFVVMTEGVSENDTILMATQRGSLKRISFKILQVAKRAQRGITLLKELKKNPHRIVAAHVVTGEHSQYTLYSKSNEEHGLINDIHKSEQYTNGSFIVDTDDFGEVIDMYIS
# Chain of S. aureus topoisomerase IV (P0C1S7 whole entry): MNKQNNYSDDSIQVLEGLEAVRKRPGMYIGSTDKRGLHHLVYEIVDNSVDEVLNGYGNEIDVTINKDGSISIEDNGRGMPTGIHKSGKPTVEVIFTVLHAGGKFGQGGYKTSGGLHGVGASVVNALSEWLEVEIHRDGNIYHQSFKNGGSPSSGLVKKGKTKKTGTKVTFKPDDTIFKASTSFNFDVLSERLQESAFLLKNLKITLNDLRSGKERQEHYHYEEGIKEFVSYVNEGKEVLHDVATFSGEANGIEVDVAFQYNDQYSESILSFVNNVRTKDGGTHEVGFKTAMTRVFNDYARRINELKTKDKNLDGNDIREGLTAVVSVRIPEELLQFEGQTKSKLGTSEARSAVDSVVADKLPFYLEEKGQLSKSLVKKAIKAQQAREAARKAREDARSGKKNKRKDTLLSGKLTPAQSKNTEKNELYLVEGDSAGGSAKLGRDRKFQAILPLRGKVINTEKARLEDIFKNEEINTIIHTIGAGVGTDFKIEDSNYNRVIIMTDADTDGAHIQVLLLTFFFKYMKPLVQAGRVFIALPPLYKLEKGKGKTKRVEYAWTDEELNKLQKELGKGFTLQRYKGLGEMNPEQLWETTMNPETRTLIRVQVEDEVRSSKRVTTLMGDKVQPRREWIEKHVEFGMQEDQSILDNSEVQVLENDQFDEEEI
smiles,measurement,setting,value
"CC(C)(C(=O)O)c1ccc(C(O)CCCN2CCC(C(O)(c3ccccc3)c3ccccc3)CC2)cc1 (stereo not drawn) [1p, 2-(4-(1-Hydroxy-4-(4-(hydroxydiphenylmethyl)piperidin-1-yl)butyl)phenyl)-2-methyl propanoic Acid, reference compound]",S. aureus antimicrobial activity (in words),[1],loss of antimicrobial activity
"CC(C)(C)c1ccc([C@@H](O)CCCN2CCC(C(O)(c3ccccc3)c3ccccc3)CC2)cc1 [2h, (S)-1-(4-(tert-Butyl)phenyl)-4-(4-(hydroxydiphenylmethyl)piperidin-1-yl)butan-1-ol]",S. aureus antimicrobial activity (in words),[1]; [7],no change in activity
OC(c1ccccc1)(c1ccccc1)C1CCN(Cc2ccc(-c3ccsc3)cc2)CC1 [4ff],fold reduction in activity compared to 4g,[1],4– 8 fold
"CC(C)(C)c1ccc([C@H](O)CCCN2CCC(C(O)(c3ccccc3)c3ccccc3)CC2)cc1 [2i, (R)-1-(4-(tert-Butyl)phenyl)-4-(4-(hydroxydiphenylmethyl)piperidin-1-yl)butan-1-ol]",S. aureus antimicrobial activity (in words),[1]; [7],no change in activity
"CC(C)(C)c1ccc(C(N)CCCN2CCC(C(O)(c3ccccc3)c3ccccc3)CC2)cc1 (stereo not drawn) [2g, (1-(4-Amino-4-(4-(tert-butyl)phenyl)butyl)piperidin-4-yl)diphenylmethanol]",MIC,[1],16 to 32 µg/mL
same,S. aureus antimicrobial activity (in words),[1]; [7],no change in activity
"CC(C)(C)c1ccc(CCN2CCC(C(O)(c3ccccc3)c3ccccc3)CC2)cn1 [3h, (1-(2-(6-(tert-Butyl)pyridin-3-yl)ethyl)piperidin-4-yl)diphenylmethanol]",IC50,[2],> 333 µM
"COc1ccc(CCN2CCC(C(O)(c3ccccc3)c3ccccc3)CC2)cc1 [3g, (1-(4-Methoxyphenethyl)piperidin-4-yl)diphenylmethanol]",IC50,[2],> 333 µM
"CN(C)c1ccc(CCN2CCC(C(O)(c3ccccc3)c3ccccc3)CC2)cc1 [3k, (1-(4-(Dimethylamino)phenethyl)piperidin-4-yl)diphenylmethanol]",IC50,[2],> 333 µM
"OC(c1ccccc1)(c1ccccc1)C1CCN(Cc2ccc(-c3ccccc3)cc2)CC1 [4g, (1-([1,1′-Biphenyl]-4-ylmethyl)piperidin-4-yl)diphenylmethanol]",inhibition of S. aureus DNA gyrase supercoiling activity in comparison to terfenadine,[3],improved inhibition
"OC(c1ccccc1)(c1ccccc1)C1CCN(CCc2ccc(-c3cccnc3)cc2)CC1 [3n, (1-(4-(Pyridin-3-yl)phenethyl)piperidin-4-yl)diphenylmethanol]",MIC,[1],16 to 32 µg/mL
"CC(C)(C)c1ccc(C(O)CCCN2CCC(C(c3ccccc3)c3ccccc3)CC2)cc1 (stereo not drawn) [5e, 4-(4-Benzhydrylpiperidin-1-yl)-1-(4-(tert-butyl)phenyl)butan-1-ol]",S. aureus antimicrobial activity (in words),[1]; [7],tolerated
"CC(C)(C)c1ccc(C(O)CCCN2CCC(C(O)(c3ccccc3)c3ccccc3)CC2)cc1 (stereo not drawn) [1a, 1-(4-(tert-Butyl)phenyl)-4-(4-(hydroxydiphenylmethyl)piperidin-1-yl)butan-1-ol]",topoisomerase IV inhibitory activity (in words),[2]; dose–response gel (Figure 5A),moderate
same,effect on activity of S. aureus RNase J2,[4],did not appear to affect the activity
same,effect on activity of S. aureus RnpA,[5],did not appear to affect the activity
"OC(c1ccccc1)(c1ccccc1)C1CCN(Cc2ccc(-c3cccs3)cc2)CC1 [4gg, (1-(4-(Thiophen-2-yl)benzyl)piperidin-4-yl)diphenylmethanol]",fold reduction in activity compared to 4g,[1],4– 8 fold
"OC(c1ccccc1)(c1ccccc1)C1CCN(CCCOc2ccc(-c3ccccc3)cc2)CC1 [compound 6, (1-(3-([1,1′-Biphenyl]-4-yloxy)propyl)piperidin-4-yl)diphenylmethanol]",inhibition of S. aureus DNA gyrase supercoiling activity in comparison to terfenadine,[3],improved inhibition
same,MIC,[6],approximately 2 μg/mL
"COc1ccc(C(O)CCCN2CCC(C(O)(c3ccccc3)c3ccccc3)CC2)cc1 (stereo not drawn) [1h, 1-(4-Methoxyphenyl)-4-(4-(hydroxydiphenylmethyl)piperidin-1-yl)butan-1-ol]",S. aureus antimicrobial activity (in words),[1]; [7],loss of antimicrobial activity
"CC(C)(C)c1ccc(C(O)CCCN2CCC(C(O)c3ccccc3)CC2)cc1 (stereo not drawn) [5a, 1-(4-(tert-Butyl)phenyl)-4-(4-(hydroxy(phenyl)methyl)piperidin-1-yl)butan-1-ol]",IC50,[2],> 333 µM
"OC(c1ccccc1)(c1ccccc1)C1CCN(Cc2ccc(-c3ccco3)cc2)CC1 [4ii, (1-(4-(Furan-2-yl)benzyl)piperidin-4-yl)diphenylmethanol]",fold reduction in activity compared to 4g,[1],4– 8 fold
"OC(c1ccccc1)(c1ccccc1)C1CCN(CCc2ccc(Cl)cc2)CC1 [3d, (1-(4-Chlorophenethyl)piperidin-4-yl)diphenylmethanol]",MIC,[1],16 to 32 µg/mL
"OC(c1ccccc1)(c1ccccc1)C1CCN(Cc2ccc(-c3ccoc3)cc2)CC1 [4hh, (1-(4-(Furan-3-yl)benzyl)piperidin-4-yl)diphenylmethanol]",fold reduction in activity compared to 4g,[1],4– 8 fold
"O=C(O)c1cn(C2CC2)c2cc(N3CCNCC3)c(F)cc2c1=O [ciprofloxacin, reference compound]",inhibition of S. aureus DNA gyrase supercoiling activity in comparison to terfenadine,[3],improved inhibition
"OC(c1ccccc1)(c1ccccc1)C1CCN(CCc2ccc(Br)cc2)CC1 [3e, (1-(4-Bromophenethyl)piperidin-4-yl)diphenylmethanol]",MIC,[1],16 to 32 µg/mL
"COC(=O)C(C)(C)c1ccc(C(O)CCCN2CCC(C(O)(c3ccccc3)c3ccccc3)CC2)cc1 (stereo not drawn) [1o, Methyl 2-(4-(1-Hydroxy-4-(4-(hydroxydiphenylmethyl)piperidin-1-yl)butyl)phenyl)-2-methylpropanoate]",S. aureus antimicrobial activity (in words),[1]; [7],loss of antimicrobial activity
"O=C(O)c1ccc(C(O)CCCN2CCC(C(O)(c3ccccc3)c3ccccc3)CC2)cc1 (stereo not drawn) [1m, 4-(1-Hydroxy-4-(4-(hydroxydiphenylmethyl)piperidin-1-yl)butyl)benzoic Acid]",S. aureus antimicrobial activity (in words),[1]; [7],loss of antimicrobial activity
"CC(C)(C)c1ccc(C(O)CCCN2CCC(Cc3ccccc3)CC2)cc1 (stereo not drawn) [5b, 4-(4-Benzylpiperidin-1-yl)-1-(4-(tert-butyl)phenyl)butan-1-ol]",IC50,[2],> 333 µM
"COC(=O)c1ccc(C(O)CCCN2CCC(C(O)(c3ccccc3)c3ccccc3)CC2)cc1 (stereo not drawn) [1i, Methyl 4-(1-Hydroxy-4-(4-(hydroxydiphenylmethyl)piperidin-1-yl)butyl)benzoate]",MIC,[1],> 256 µg/mL
same,S. aureus antimicrobial activity (in words),[1]; [7],loss of antimicrobial activity
same,IC50,[2],> 333 µM
"CC1(c2ccc(CCN3CCC(C(O)(c4ccccc4)c4ccccc4)CC3)cc2)COC1 [3o, (1-(4-(3-Methyloxetan-3-yl)phenethyl)piperidin-4-yl)diphenylmethanol]",IC50,[2],> 333 µM
"OC(c1ccccc1)(c1ccccc1)C1CCN(CCc2ccc(F)cc2)CC1 [3c, (1-(4-Fluorophenethyl)piperidin-4-yl)diphenylmethanol]",IC50,[2],> 333 µM
